From patent US20260176300A1, “N-ARYLPYRAZOLE NOD2 AGONISTS AS PROMOTERS OF IMMUNE CHECKPOINT INHIBITOR THERAPY” (THE SCRIPPS RESEARCH INSTITUTE, priority 2022, published 2026)
Entries after “also recorded” stand apart in the source; their conditions may differ.

Tested on: B16-F10 subcutaneous tumors
Assay: B16-F10 tumor growth assay with anti-PD-L1 co-treatment
Type: in vivo, mice
Settings: for B16 tumor growth over time: wild-type C57BL/6 mice, 100 μg α-PD-L1 and 100 μg compound i.p. every other day
Experimental: FIG. 3(A-H). NOD2 agonist TT030 activates cytokine production in vitro and improves immune checkpoint inhibitor treatment of tumor growth in vivo. A-D, Measurements of secreted cytokine levels from human peripheral mononuclear blood cells (PMBCs) treated with the indicated compounds for 24 h without or with lipopolysaccharide (LPS). E, Structures of TT030 and its enantiomer (TT030-ent). F, Activation of NOD1- and NOD2-expressing HEK-293T cells with the indicated compounds. C12-iE-DAP is a lipophilic version of the NOD1 agonist, iE-DAP. G, Growth profiles of B16-F10 subcutaneous tumors in wild-type C57BL/6 mice treated with 100 μg α-PD-L1 and 100 μg of the indicated compounds every other day starting at Day 7. H, Growth profiles of B16-F10 subcutaneous tumors in wild-type or Nod2^−/− C57BL/6 mice treated with 100 μg α-PD-L1 and 100 μg TT030 every other day starting at Day 7. Cytokine secretion assays and NOD activation assays were analyzed using a one-way ANOVA with Dunnett's multiple comparisons test compared to the DMSO control. Longitudinal tumor growth assays were analyzed using linear mixed-effects model analysis on the log transformed data. ns=not significant, *P<0.05, **P<0.01, ***P<0.001, ****P<0.0001.
Animals. Specific pathogen-free, eight-week old male C57BL/6J (B6, 000664) and B6.129S1—Nod2^tm1Flv/J (Nod2^−/−, 005763 from Flavell Lab, Yale School of Medicine) were obtained from The Jackson Laboratory. Animals were housed in autoclaved caging with SaniChip bedding and enrichment for nest building on a 12-hour light/dark cycle. Animals were provided gamma-irradiated chow (LabDiet, 5053) and sterile drinking water ad libitum. Animal care and experiments were conducted in accordance with NIH guidelines and approved by the Institutional Animal Care and Use Committee at Scripps Research (Protocol AUP-21-095).
Tumor growth assay. B16-F10 cells were subcultured on the day prior to harvesting for tumor inoculation. On the day of injection, cells were harvested using TrypLE Express, washed and resuspended in cold PBS, and counted with a hemocytometer. Cells were then resuspended at 2×10^6 cells mL^−1 in PBS and mixed 1:1 with Matrigel matrix (Corning; growth factor reduced, 356231). Cell suspensions were kept on ice prior to injection. Animals were anesthetized using 3% isoflurane, and their right flank was shaved with hair clippers. Animals were then subcutaneously injected with 100 μL of the cell suspension on their mid-right flank (1×10^5 cells per injection). Once tumors were established at roughly 25-100 mm^3, tumor volume was measured every other day. Digital calipers were used to measure the length and width of each tumor, and tumor volume was calculated as length×[…], where width was the smaller of the two measurements. […]

Structure (SMILES) | B16 tumor growth over time | Anti-tumor activity in Nod2−/− mice (Nod2−/− vs. wild-type C57BL/6 mice, 100 μg α-PD-L1 and 100 μg TT030 every other day)
CC(=O)N[C@H]1C(O)O[C@H](CO)[C@@H](O)[C@@H]1O[C@H](C)C(=O)N[C@@H](C)C(=O)N[C@H](CCC(=O)O)C(N)=O (stereo partly drawn) [MDP, (4R)-4-((2S)-2-((2R)-2-(((3R,4R,5S,6R)-3-acetamido-2,5-dihydroxy-6-(hydroxymethyl)tetrahydro-2H-pyran-4-yl)oxy)propanamido)propanamido)-5-amino-5-oxopentanoic acid, reference compound] | significantly inhibited tumor growth | 
CCOC(=O)CC[C@@H](NC(=O)[C@@H](NC(=O)c1c(C)nn(-c2cc[nH]c(=O)c2)c1C)C(C)C)C(=O)OCC [TT030, Diethyl (3,5-dimethyl-1-(2-oxo-1,2-dihydropyridin-4-yl)-1H-pyrazole-4-carbonyl)-L-valyl-D-glutamate] | anti-tumor activity was also observed; also recorded: equivalent anti-tumor activity as MDP | loss in the anti-tumor activity
